The target in one assay is T1, PDE4A1A (Homo sapiens, UniProt P27815).
T1 construct: purchased Eurofins Panlabs Discovery Services Taiwan, Ltd. (contract assay); host or cells: insect Sf9 cells
Briefly: PDE enzyme (kinase) assay, PDE4A1A. In kind it is biochemical. Here is the method:
(§1) Enzyme assays for various subtypes of PDE (Table 1 and Figure 4) were conducted by Eurofins Panlabs Discovery Services Taiwan, Ltd. (New Taipei City, Taiwan). In the assays, five or six concentrations of nobiletin over five or six orders of magnitude were examined in experiments conducted in duplicate to determine the IC50 (concentration of nobiletin exerting half-maximal inhibition of control-specific activity). IC50 values were determined by nonlinear least squares regression analysis using MathIQTM (ID Business Solutions Ltd., Woking, UK). FAM-cAMP, FAM-cGMP (0.1 μM), and 100 μM [^3H]cGMP + cGMP were used for the substrate in the human recombinant insect Sf9 cells or Bovine retinal rod outer segments depending on the PDE subtype. The spectrofluorometric quantitation of fluorescein-AMP-IMAP, fluorescein-GMP-IMAP, or [^3H] guanosine was used depending on the PDE subtype. A known […] of each PDE was used as the positive control.
(§2) Figure 4 PDE kinase assays and the acute clock gene expression changes by PDE4 inhibitor or ROR α/γ agonist. (A) Inhibitory effect of nobiletin on PDE4A1, 4B1, and 10A2. Various concentrations of nobiletin (1–100 μM) were used for IC50 determination (Table 1). Values represent the mean of two experiments. Positive controls were rolipram for PDE4A1 and 4B1 and papaverine for PDE10A2. […]

The target of a further assay is T2, PDE4B1 (Homo sapiens, UniProt Q07343).
T2 construct: purchased Eurofins Panlabs Discovery Services Taiwan, Ltd. (contract assay); host or cells: insect Sf9 cells
Nature of the assay: PDE enzyme (kinase) assay, PDE4B1. In kind it is biochemical. As for the experimental part:
as §1, §2

The target in another assay is T3, PDE10A2 (Homo sapiens, UniProt Q9Y233).
T3 construct: purchased Eurofins Panlabs Discovery Services Taiwan, Ltd. (contract assay); host or cells: insect Sf9 cells
Briefly: PDE enzyme (kinase) assay, PDE10A2. In kind it is biochemical. As for the experimental part: as §1, §2

A further assay concerns serum corticosterone. Briefly: Serum corticosterone ELISA after i.p. injection. In kind it is in vivo, mice. Conditions: 100 mg/kg i.p. at ZT3, 1 h after administration. As for the experimental part: Male C57BL/6J mice (7 weeks old) were purchased from Charles River Japan (Kanagawa, Japan) and used for the serum hormone assay and RT-PCR. Male ICR mice were purchased from Tokyo Laboratory Animals Science Co., Ltd. (Tokyo, Japan), and female PERIOD2::LUCIFERASE (PER2::LUC) knock-in mice (ICR background) bred at Waseda University were used for blood glucose measurements and in vivo imaging assays, respectively. The mice were all housed under conditions of controlled temperature (23 °C ± 3 °C), humidity (50% ± 20%), and lighting (lights on from 07:00 to 19:00 at Taisho Pharmaceutical Co., Ltd. or from 08:00 to 20:00 at Waseda University). In the 24 h cycle, Zeitgeber time 0 (ZT0) was designated as the time when the lights were turned on, and ZT12 was designated as the time when the lights were turned off. […]
Serum corticosterone, adrenaline, and adreno-corticotropic hormone (ACTH) levels, and corticotropin releasing factor (CRF) in the hypothalamus, were measured using enzyme-linked immunosorbent assay (ELISA). […] Blood glucose levels were measured using a Glucose PILOT kit (Aventir Biotech, LLC, Carlsbad, CA, USA). The range of blood glucose that could be precisely measured with the kit was 20–600 mg/dL. […]
For orientation: ELISA stands for enzyme-linked immunosorbent assay.

Among the data in paper PMC11123956, “Nobiletin Stimulates Adrenal Hormones and Modulates the Circadian Clock in Mice” (Nutrients, 2024) are IC50 and serum corticosterone levels values, retold here.

What is called IC50 is the concentration that inhibits the measured activity by half. The low end stands for greater potency, the high end for weaker potency.

T1 sequence (P27815 1-647 isoform P27815-4): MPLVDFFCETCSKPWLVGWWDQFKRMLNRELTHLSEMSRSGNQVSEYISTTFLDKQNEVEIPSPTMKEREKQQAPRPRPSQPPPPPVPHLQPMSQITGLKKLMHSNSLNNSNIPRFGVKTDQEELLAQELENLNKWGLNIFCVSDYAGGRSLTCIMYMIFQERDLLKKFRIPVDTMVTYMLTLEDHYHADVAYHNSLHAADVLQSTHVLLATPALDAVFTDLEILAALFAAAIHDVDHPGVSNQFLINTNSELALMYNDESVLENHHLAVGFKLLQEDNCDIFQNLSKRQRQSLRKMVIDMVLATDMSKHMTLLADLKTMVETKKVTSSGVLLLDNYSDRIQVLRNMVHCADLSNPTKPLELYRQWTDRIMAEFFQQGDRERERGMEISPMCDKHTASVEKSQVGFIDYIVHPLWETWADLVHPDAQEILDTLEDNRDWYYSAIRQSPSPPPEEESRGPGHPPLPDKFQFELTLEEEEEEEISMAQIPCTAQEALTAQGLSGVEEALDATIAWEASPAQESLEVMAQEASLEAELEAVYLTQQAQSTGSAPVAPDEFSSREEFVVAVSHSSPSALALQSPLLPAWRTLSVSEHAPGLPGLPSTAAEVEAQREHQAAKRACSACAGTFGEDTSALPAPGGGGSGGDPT
T2 sequence (Q07343 whole entry): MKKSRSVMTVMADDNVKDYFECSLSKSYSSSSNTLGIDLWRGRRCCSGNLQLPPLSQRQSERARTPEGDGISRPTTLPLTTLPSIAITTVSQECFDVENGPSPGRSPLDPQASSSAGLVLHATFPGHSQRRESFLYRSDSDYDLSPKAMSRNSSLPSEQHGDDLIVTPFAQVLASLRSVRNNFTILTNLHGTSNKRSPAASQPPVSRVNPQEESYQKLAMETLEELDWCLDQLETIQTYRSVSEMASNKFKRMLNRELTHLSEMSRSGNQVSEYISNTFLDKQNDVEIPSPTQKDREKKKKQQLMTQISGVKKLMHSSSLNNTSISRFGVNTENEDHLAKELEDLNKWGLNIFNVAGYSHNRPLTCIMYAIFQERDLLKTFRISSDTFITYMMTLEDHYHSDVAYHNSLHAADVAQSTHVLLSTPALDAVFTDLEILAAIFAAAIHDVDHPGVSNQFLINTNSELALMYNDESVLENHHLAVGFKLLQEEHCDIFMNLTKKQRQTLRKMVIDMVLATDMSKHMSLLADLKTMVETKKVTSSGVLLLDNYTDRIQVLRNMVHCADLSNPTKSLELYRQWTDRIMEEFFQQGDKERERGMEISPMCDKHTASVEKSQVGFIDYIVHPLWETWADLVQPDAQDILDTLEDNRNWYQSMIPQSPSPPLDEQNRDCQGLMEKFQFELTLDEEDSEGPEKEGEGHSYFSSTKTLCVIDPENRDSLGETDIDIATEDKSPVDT
T3 sequence (Q9Y233 267-1055): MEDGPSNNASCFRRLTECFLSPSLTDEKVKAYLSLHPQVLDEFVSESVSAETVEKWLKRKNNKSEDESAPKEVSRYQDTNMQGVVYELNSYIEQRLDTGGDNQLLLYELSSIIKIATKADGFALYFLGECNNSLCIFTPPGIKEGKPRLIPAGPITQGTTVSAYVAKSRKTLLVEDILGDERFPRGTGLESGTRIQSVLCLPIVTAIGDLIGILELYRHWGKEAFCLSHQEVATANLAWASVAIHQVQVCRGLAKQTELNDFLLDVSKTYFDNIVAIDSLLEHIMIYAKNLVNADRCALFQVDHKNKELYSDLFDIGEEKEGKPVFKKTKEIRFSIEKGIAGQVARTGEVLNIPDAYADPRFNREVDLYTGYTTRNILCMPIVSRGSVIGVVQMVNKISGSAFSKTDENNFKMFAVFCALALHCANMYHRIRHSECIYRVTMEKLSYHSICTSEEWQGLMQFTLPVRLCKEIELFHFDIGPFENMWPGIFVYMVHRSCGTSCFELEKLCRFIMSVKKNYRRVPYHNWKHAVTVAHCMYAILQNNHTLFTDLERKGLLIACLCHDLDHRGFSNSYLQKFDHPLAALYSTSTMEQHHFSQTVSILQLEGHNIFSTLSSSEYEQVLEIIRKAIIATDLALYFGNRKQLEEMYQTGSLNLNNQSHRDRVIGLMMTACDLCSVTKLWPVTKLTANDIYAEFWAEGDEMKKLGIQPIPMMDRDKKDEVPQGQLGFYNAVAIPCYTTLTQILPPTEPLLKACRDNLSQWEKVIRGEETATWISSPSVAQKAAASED

Take `COc1ccc(-c2cc(=O)c3c(OC)c(OC)c(OC)c(OC)c3o2)cc1OC` [nobiletin]: the IC50 on PDE4A1A (IC50, PDE4A1A, bound stated in the discussion) is no more than 6.03 µM; at PDE4A1A (IC50 Dose, PDE4A1A, duplicate), 5.23 µM; at PDE4B1 (IC50, PDE4B1, bound stated in the discussion) it was no more than 6.03 µM; against PDE4B1 (IC50 Dose, PDE4B1, duplicate), 6.03 µM; at PDE10A2 (IC50, PDE10A2, bound stated in the discussion), no more than 6.03 µM; at PDE10A2 (IC50 Dose, PDE10A2, duplicate) it was 1.51 µM. Moreover, the serum corticosterone levels result in the assay on serum corticosterone was “increase”.
